According to patent US4629723A, “Potent thymopentin analogs” (Ortho Pharmaceutical Corporation, priority 1984, dated 1986):
Non-standard residues stand in square brackets, D forms with d. Residues, ends and D or L forms follow the SMILES beside them. No end group written: not given here. Aib = CC(C)(N)C(=O)O

How the values were obtained:
intact CEM cell = experiment: Cyclic-GMP assay; assay type: cell-based, human; details: for Result on the cyclic-GMP assay in words: in comparison with thymopentin; for Concentration of c-GMP Produced: CEM cells, 4-5 min, 37° C.
Description: This biological activity is evidenced by an assay measuring induction of cyclic-GMP production in a human T-cell line in comparison with thymopoietin. The induction of c-GMP production by a test peptide in this assay indicates the ability of the test peptide to bind to the thymopoietin receptor site on the cell and induce thymopoietin-like biological activity. […] Because of the expense of preparing peptides and the rapid degradation of peptides often observed in living systems, peptides such as those herein which have increased potency are greatly prized.
This assay measures the ability of the test peptide to bind to the cell membrane receptor of the intact CEM cell and selectively stimulate production of cyclic-GMP, as does thymopoietin itself.
The CEM cell line was obtained from the American Type Culture Collection and was cultured in RPMI-1640 medium supplemented with 10% heat-inactivated fetal bovine serum, 10% heat-inactivated horse serum, 2 mM L-glutamine, and 50 µg/ml gentamycin at 37° C. in a humid atmosphere containing 5 percent CO2, to a final density of 3-4×10^6 cells/ml. At this concentration, the cells were in the early stationary phase of the growth curve and were judged greater than 90% viable by trypan blue exclusion. The cells were grown for four days and harvested. After harvesting, the cells were washed three times in PBS and were resuspended in RPMI-1640 medium at a concentration of 3.12×10^7 cells/ml. After the cells had been allowed to equilibrate at 37° C. for 30 min, various concentrations of the test peptides were added in a volume of 25 μl of medium to 1 ml of cells, the initial concentration of test compound added being selected to yield the desired final concentration of test peptide in the medium. The test peptide was mixed instantly with the cell suspension. The incubation was allowed to proceed in a shaking water bath at 37° C. for 4-5 min and was then terminated by addition of ice-cold trichloroacetic acid (10%; 1 ml).
The cells in TCA were then homogenized and sonicated to release cyclic nucleotide. The resulting suspension was centrifuged at 3000 g for 20 min at 4° C. and the resulting precipitate was dissolved in 0.1N NaOH and sonicated for a further 30 minutes, after which the protein content was determined by the method of Cadman, et al., Anal. Biochem., 96, 21-23 (1979). The TCA was removed from the supernatant fraction by extracting four times with 5 ml of water-saturated diethyl ether. After the final extraction, the remaining traces of ether were removed from the supernatant fraction by heating it for 10 min in a 50° C. water bath. After lyophilization of the extracted supernatant fraction, it was reconstituted in 50 mM acetate buffer, ph 6.2, for radioimmunoassay of cyclic nucleotide using the assay kit NEX-133, New England Nuclear, Boston, MA 02113.
A conventional competition radioimmunoassay against radio labelled cyclic GMP was conducted to determine the amount of cyclic GMP induced by each concentration of test peptide. Results are shown in FIG. 1 and in the following table, in which representative subject peptides have been assayed in comparison with thymopentin (designated "TP-5") and a "nonsense" peptide H-ASP-ARG-TYR-LYS-VAL-OH.

[1] = test system: isolated thymopoietin cell surface receptor protein from CEM cells; details: for Displacement of 125I-TP relative to that caused by thymopoietin self-displacement: at equivalent concentrations, 2.3×10^-10 M 125I-TP, 4 μg receptor protein, with TP 37-45 nonapeptide, 12 h; for Displacement of 125I-TP, in words: comparison peptides, competition experiments
[2] = Concentration of Peptide 10^0 μg/ml
[3] = Concentration of Peptide 10^1 μg/ml
[4] = Concentration of Peptide 10^3 μg/ml
[5] = Concentration of Peptide 10^4 μg/ml

CC(=O)N[C@@H](CCCNC(=N)N)C(=O)N1CCC[C@H]1C(=O)N[C@@H](CC(=O)O)C(=O)N[C@H](C(=O)N[C@@H](Cc1ccccc1)C(N)=O)C(C)C [N-α-acetyl-ARG-PRO-ASP-VAL-PHE-NH2, Acetyl-Arginyl-Prolyl-Aspartyl-Valyl-Phenylalanine-amide] (Ac-RPDVF-NH2)
Result on the cyclic-GMP assay in words (intact CEM cell): superior results

CC(C)[C@H](NC(=O)[C@H](CC(=O)O)NC(=O)[C@H](CCCCN)NC(=O)[C@@H](N)CCCNC(=N)N)C(=O)N[C@@H](Cc1c[nH]cn1)C(=O)O [H-ARG-LYS-ASP-VAL-HIS-OH, Arginyl-Lysyl-Aspartyl-Valyl-Histidine] (H-RKDVH-OH)
Concentration of c-GMP Produced (intact CEM cell; [2]): 0 picomoles/ml
Concentration of c-GMP Produced (intact CEM cell; [3]): 9 picomoles/ml
Displacement of 125I-TP relative to that caused by thymopoietin self-displacement [1]: at least 50%

CC(C)[C@H](NC(=O)[C@H](CC(=O)O)NC(=O)[C@H](CCCCN)NC(=O)[C@@H](N)CCCN=C(N)N)C(=O)N[C@@H](Cc1ccc(O)cc1)C(=O)O [TP-5, H--ARG--LYS--ASP--VAL--TYR--OH, reference compound] (H-RKDVY-OH)
Concentration of c-GMP Produced (intact CEM cell; [2]): 0 picomoles/ml
Concentration of c-GMP Produced (intact CEM cell; [3]): 4.5 picomoles/ml
Concentration of c-GMP Produced (intact CEM cell; Concentration of Peptide 10^2 μg/ml): 9 picomoles/ml
Concentration of c-GMP Produced (intact CEM cell; [4]): 12 picomoles/ml
Concentration of c-GMP Produced (intact CEM cell; [5]): 14 picomoles/ml

CC(=O)N[C@@H](CCCNC(=N)N)C(=O)NC(C)(C)C(=O)N[C@@H](CC(=O)O)C(=O)N[C@H](C(=O)N[C@@H](Cc1ccccc1)C(N)=O)C(C)C [N-α-acetyl-ARG-AIB-ASP-VAL-PHE-NH2, Acetyl-Arginyl-α-Aminoisobutyryl-Aspartyl-Valyl-Phenylalaminamide] (Ac-R[Aib]DVF-NH2)
Result on the cyclic-GMP assay in words (intact CEM cell): superior results

CC(C)[C@H](NC(=O)[C@H](CC(=O)O)NC(=O)[C@H](CCCCN)NC(=O)[C@@H](N)CCCNC(=N)N)C(=O)N[C@@H](Cc1c[nH]c2ccccc12)C(N)=O [H-ARG-LYS-ASP-VAL-TRP-NH2, Arginyl-Lysyl-Aspartyl-Valyl-Tryptophan amide] (H-RKDVW-NH2)
Result on the cyclic-GMP assay in words (intact CEM cell): superior results
Displacement of 125I-TP relative to that caused by thymopoietin self-displacement [1]: at least 50%

CC(C)[C@H](NC(=O)[C@H](CC(=O)O)NC(=O)[C@@H]1CCCN1C(=O)[C@@H](N)CCCNC(=N)N)C(=O)N[C@@H](Cc1ccccc1)C(=O)O [H--ARG--PRO--ASP--VAL--PHE--OH, Arginyl-Prolyl-Aspartyl-Valyl-Phenylalanine] (H-RPDVF-OH)
Concentration of c-GMP Produced (intact CEM cell; [2]): 0 picomoles/ml
Concentration of c-GMP Produced (intact CEM cell; [3]): 12 picomoles/ml
Displacement of 125I-TP relative to that caused by thymopoietin self-displacement [1]: at least 50%

C[C@H](N)C(=O)NCC(=O)N[C@H]1CSSC[C@@H](C(=O)O)NC(=O)[C@H](CO)NC(=O)[C@H]([C@@H](C)O)NC(=O)[C@H](Cc2ccccc2)NC(=O)[C@H]([C@@H](C)O)NC(=O)[C@H](CCCCN)NC(=O)[C@H](Cc2c[nH]c3ccccc23)NC(=O)[C@H](Cc2ccccc2)NC(=O)[C@H](Cc2ccccc2)NC(=O)[C@H](CC(N)=O)NC(=O)[C@H](CCCCN)NC1=O [somatostatin]
Displacement of 125I-TP, in words [1]: no detectable displacement

facteur thymique serique [FTS]
Displacement of 125I-TP, in words [1]: no detectable displacement

adrenocorticotropic hormone (SYSMEHFRWGKPVGKKRRPVKVYPNGAEDESAEAFPLEF; Corticotropin; UniProt P01189 138-176, looked up) [ACTH]
Displacement of 125I-TP, in words [1]: no detectable displacement

CC(C)[C@H](NC(=O)[C@H](CCCCN)NC(=O)[C@H](Cc1ccc(O)cc1)NC(=O)[C@H](CCCNC(=N)N)NC(=O)[C@@H](N)CC(=O)O)C(=O)O [H--ASP--ARG--TYR--LYS--VAL--OH, H-ASP-ARG-TYR-LYS-VAL-OH, reference compound] (H-DRYKV-OH)
Concentration of c-GMP Produced (intact CEM cell; [4]): 0 picomoles/ml
Concentration of c-GMP Produced (intact CEM cell; [5]): 0 picomoles/ml
Concentration of c-GMP Produced (intact CEM cell; Concentration of Peptide 10^5 μg/ml): 0 picomoles/ml

CC(=O)N[C@@H](CCCNC(=N)N)C(=O)N1CCC[C@H]1C(=O)N[C@@H](CC(=O)O)C(=O)N[C@H](C(=O)N[C@@H](Cc1ccccc1)C(=O)O)C(C)C [N-α-acetyl-ARG-PRO-ASP-VAL-PHE-OH, N^α -Acetyl-Arginyl-Prolyl-Aspartyl-Valyl-Phenylaline] (Ac-RPDVF-OH)
Concentration of c-GMP Produced (intact CEM cell; [2]): 7 picomoles/ml
Concentration of c-GMP Produced (intact CEM cell; [3]): 15 picomoles/ml

β-endorphin (YGGFMTSEKSQTPLVTLFKNAIIKNAYKKGE; Beta-endorphin; UniProt P01189 237-267, looked up)
Displacement of 125I-TP, in words [1]: no detectable displacement

ubiquitin
Displacement of 125I-TP, in words [1]: no detectable displacement

N^α -Acetyl-Arginyl-3,4-dehydro-Prolyl-Aspartyl-Valyl-Tyrosineamide
Result on the cyclic-GMP assay in words (intact CEM cell): superior results

CC(C)[C@H](NC(=O)[C@H](CC(=O)O)NC(=O)[C@H](CCCCN)NC(=O)[C@@H](N)CCCNC(=N)N)C(=O)N[C@@H](Cc1c[nH]c2ccccc12)C(=O)O [H-ARG-LYS-ASP-VAL-TRP-OH, Arginyl-Lysyl-Aspartyl-Valyl-Tryptophan] (H-RKDVW-OH)
Result on the cyclic-GMP assay in words (intact CEM cell): superior results
Displacement of 125I-TP relative to that caused by thymopoietin self-displacement [1]: at least 50%

CC(C)[C@H](NC(=O)[C@H](CC(=O)O)NC(=O)[C@H](CCCCN)NC(=O)[C@@H](N)CCCNC(=N)N)C(=O)N[C@@H](Cc1ccccc1)C(=O)O [H-ARG-LYS-ASP-VAL-PHE-OH, Arginyl-Lysyl-Aspartyl-Valyl-Phenylalanine] (H-RKDVF-OH)
Concentration of c-GMP Produced (intact CEM cell; [2]): 6 picomoles/ml
Concentration of c-GMP Produced (intact CEM cell; [3]): 9 picomoles/ml
Displacement of 125I-TP relative to that caused by thymopoietin self-displacement [1]: at least 50%

corticotropin-releasing factor (SEEPPISLDLTFHLLREVLEMARAEQLAQQAHSNRKLMEII; ends and bridges not checked; UniProt P06850 154-194, looked up) [CRF]
Displacement of 125I-TP, in words [1]: no detectable displacement

growth hormone
Displacement of 125I-TP, in words [1]: no detectable displacement
